According to patent US8093265B2, “Bicycloheteroaryl compounds as P2X7 modulators and uses thereof” (Renovis, Inc., priority 2007, dated 2012):

Columns and labels:
P2X7 receptor = molecular target: T1, P2X7 receptor (Homo sapiens, UniProt Q99572); assay: IL-1β release assay in differentiated THP-1 cells (Example 9); format: cell-based; conditions: THP-1 cells differentiated with LPS and IFN-γ; 30 min pretreatment; BzATP 250 uM; IL-1β by ELISA
T1 construct: host or cells: THP-1 cells differentiated with LPS and IFN-γ
T1 sequence (Q99572 1-595): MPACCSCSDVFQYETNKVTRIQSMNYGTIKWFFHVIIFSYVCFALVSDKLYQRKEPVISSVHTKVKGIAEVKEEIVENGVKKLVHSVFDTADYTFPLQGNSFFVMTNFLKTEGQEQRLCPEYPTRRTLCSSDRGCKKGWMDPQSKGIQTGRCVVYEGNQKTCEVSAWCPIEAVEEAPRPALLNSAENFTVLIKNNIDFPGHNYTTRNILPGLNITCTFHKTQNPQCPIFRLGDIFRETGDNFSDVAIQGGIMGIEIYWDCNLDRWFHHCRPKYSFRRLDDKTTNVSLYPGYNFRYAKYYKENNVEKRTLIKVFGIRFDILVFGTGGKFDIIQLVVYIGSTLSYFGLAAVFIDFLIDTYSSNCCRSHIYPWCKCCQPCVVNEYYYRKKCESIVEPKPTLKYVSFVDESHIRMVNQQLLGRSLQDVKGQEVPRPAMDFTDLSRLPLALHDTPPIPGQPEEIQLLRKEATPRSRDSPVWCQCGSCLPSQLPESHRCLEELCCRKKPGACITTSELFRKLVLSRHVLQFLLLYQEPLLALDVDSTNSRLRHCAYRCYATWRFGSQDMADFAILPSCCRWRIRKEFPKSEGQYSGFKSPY
Description: THP-1 cells (ATCC Cat #285-IF-100) are plated in 96 well plates at a concentration of 200,000 cells per well and allowed to differentiate in RPMI-1640 media (ATCC Cat #30-2001) containing 10% FBS, 100 IU/mL penicillin, 100 ug/mL streptomycin, 100 ng/mL LPS and 100 ng/mL IFN-γ for 16 hours. Following differentiation, the cells are treated for an additional 2 hours in RPMI-1640 media containing 100 IU/mL penicillin, 100 ug/mL streptomycin and fresh LPS at 100 ng/mL. The cells are then pretreated for 30 minutes with the compound of interest at the appropriate concentration in RPMI media containing 100 IU/mL penicillin, 100 ug/mL streptomycin. Following the pretreatment 2′,3′-O-(4-benzoylbenzoyl)-adenosine 5′-triphosphate (Sigma Aldrich Cat # B6396) is added to a final concentration of 250 uM, and the cells are incubated for an additional 45 minutes. 30 uL of cell supernatant is then collected and IL-1β levels are determined via ELISA (R&D systems Cat. # HSLB50) according to manufacturer's recommendations using a Tecan Safire plate reader. Background adjusted IL-1β levels of drug treated and non-treated cells are used to calculate the percent inhibition.
The following compounds have been or can be prepared according to the synthetic methods described herein for example, methods A-AA1. The compounds set forth in Table 1 were tested for activity in a cellular model as described herein. Specifically, cells were pretreated with differing amounts of the compound under test and released IL-1β determined as in Example 9, above. Measurements were made and IC50 values, presented in Table 1, below, were determined by fitting the data to a four parameter logistic equation using GraphPad Prism software (GraphPad Software, Inc). The equation may be expressed by the following formula: Y=Bottom+(Top−Bottom)/(1+10^((Log EC50−X)*HillSlope)) where X is the logarithm of concentration, Y is the response and Y starts at Bottom and goes to Top with a sigmoid shape.

[1] = Plasma protein binding by equilibrium dialysis, human plasma; format: in vitro ADME; conditions: pH 7.4, equilibrium dialysis 16 hr at 37° C., % Bound
Description: The plasma protein binding of compounds of invention is measured in human and rat plasma, respectively. A stock solution of the tested compound is prepared in 1 mg/mL in DMSO solution. The stock solution is spiked into the blank plasma to get a final compound concentration at 1 μg/mL for testing. Equilibrium dialysis (The equilibrium dialyzer-96TM MWCO 5K Daltons, Harvard Apparatus) method is used for the testing purpose.
The compound spiked plasma (at […]) and phosphate buffer (0.1 M, pH 7.4), 200 μl each, are added into the opposite sides of the membrane in a 96-well equilibrium dialyzer, respectively. The dialyzer plate is covered and incubated overnight (16 hr) at 37° C. in the 8-plate rotor incubator (Big Shot III 8-plate rotor, Harvard Apparatus). Aliquots (100 μL) are taken from the plasma and the buffer compartments, respectively. The matrix effects are eliminated by adding the same volume of blank plasma into the samples from buffer compartments and adding the same volume of phosphate buffer into the samples from plasma compartments. The samples are extracted by using the regular (3:1) protein precipitation extraction procedure (acetonitrile with internal standard). The supernatants are taken for LC/MS/MS analysis. The percentage of plasma-protein binding can be calculated by using the following method: % Free=[Free Drug/Total Drug]*100=[(Peak Area)buffer/(Peak Area)plasma]*100 % Bound=100−% Free.
For the purpose of Table 4, the plasma protein binding of each compound is expressed as follows: […]

[2] = Half-life in human liver microsomes (HLM); format: in vitro ADME; conditions: human liver microsomes 0.78 mg/mL, 1 μM compound, NADPH, 37° C.; for half-life at 1 μM: pH 7.4
Description: Half-Life in Human Liver Microsomes (HLM)
Test compounds (1 μM) are incubated with 3.3 mM MgCl2 and 0.78 mg/mL HLM (HL101) in 100 mM potassium phosphate buffer (pH 7.4) at 37° C. on the 96-deep well plate. The reaction mixture is split into two groups, a non-P450 and a P450 group. NADPH is only added to the reaction mixture of the P450 group. An aliquot of samples of P450 group is collected at 0, 10, 30, and 60 min time point, where 0 min time point indicated the time when NADPH is added into the reaction mixture of P450 group. […] Collected aliquots are extracted with acetonitrile solution containing an internal standard. […] The compound concentration in supernatant is measured by LC/MS/MS system.
The half-life value is obtained by plotting the natural logarithm of the peak area ratio of compounds/internal standard versus time. The slope of the line of best fit through the points yields the rate of metabolism (k). This is converted to a half-life value using following equations: Half-life=ln 2/k

Structure (SMILES) | IC50 (P2X7 receptor) | fraction unbound at 16 hr, 1 μg/mL [1] | half-life at 1 μM [2] | Half Life [2]
C[C@H](CO)n1ccc2c(C(=O)NCC3(O)CCC4(CC3)CC4)c(Cl)ccc2c1=O [Compound 63, 6-Chloro-2-((R)-1-hydroxypropan-2-yl)-N-((6-hydroxyspiro[2.5]octan-6-yl)methyl)-1-oxo-1,2-dihydroisoquinoline-5-carboxamide] | 0.6 nM | 0.25 to 0.49 | – | –
C[C@H](CO)n1ccc2c(C(=O)NCC3CCC(F)(F)CC3)c(Cl)ccc2c1=O [Compound 61, (R)-6-Chloro-N-((4,4-difluorocyclohexyl)methyl)-2-(1-hydroxypropan-2-yl)-1-oxo-1,2-dihydroisoquinoline-5-carboxamide] | 5 nM | 0.1 to 0.24 | – | –
C[C@H](CO)n1ccc2c(C(=O)NCC3(O)CCC(C)(C)CC3)c(Cl)ccc2c1=O [Compound 54, (R)-6-chloro-N-((1-hydroxy-4,4-dimethylcyclohexyl)methyl)-2-(1-hydroxypropan-2-yl)-1-oxo-1,2-dihydroisoquinoline-5-carboxamide] | 1 nM | – | 0.3 h | –
Cc1ccc2c(=O)n([C@H](C)CO)ccc2c1NC(=O)Cc1ccc(F)c(C(F)(F)F)c1 [Compound 22, 2-(4-Fluoro-3-trifluoromethyl-phenyl)-N-[2-((R)-2-hydroxy-1-methyl-ethyl)-6-methyl-1-oxo-1,2-dihydro-isoquinolin-5-yl]-acetamide] | 0.7 nM | < 0.1 | – | –
C[C@H](CO)n1ccc2c(C(=O)NCC3(O)CC4CCC3C4)c(Cl)ccc2c1=O (stereo partly drawn) [Compound 53, 6-Chloro-2-((R)-2-hydroxy-1-methyl-ethyl)-1-oxo-1,2-dihydro-isoquinoline-5-carboxylic acid (2-hydroxy-bicyclo[2.2.1]hept-2-ylmethyl)-amide] | 532 nM | – | – | –
C[C@H](CO)n1ccc2c(C(=O)NCc3cccc(C(F)(F)F)c3)c(Cl)ccc2c1=O [Compound 44, 6-Chloro-2-((R)-2-hydroxy-1-methyl-ethyl)-1-oxo-1,2-dihydro-isoquinoline-5-carboxylic acid 3-trifluoromethyl-benzylamide] | 10 nM | – | 1.1 h | –
Cc1ccc2c(=O)n([C@H](C)CN3CCNCC3)ccc2c1NC(=O)Cc1ccc(C(F)(F)F)c(F)c1 [Compound 60, 2-(3-Fluoro-4-trifluoromethyl-phenyl)-N-[6-methyl-2-((R)-1-methyl-2-piperazin-1-yl-ethyl)-1-oxo-1,2-dihydro-isoquinolin-5-yl]-acetamide] | 1 nM | – | – | –
C[C@H](CO)n1ccc2c(C(=O)NCC3(O)CCCCCC3)c(Cl)ccc2c1=O [Compound 47, 6-Chloro-2-((R)-2-hydroxy-1-methyl-ethyl)-1-oxo-1,2-dihydro-isoquinoline-5-carboxylic acid (1-hydroxy-cycloheptylmethyl)-amide] | 0.8 nM | – | 0.4 h | –
C[C@H](CO)n1ccc2c(C(=O)NCc3ccc(Cl)c(F)c3)c(Cl)ccc2c1=O [Compound 45, 6-Chloro-2-((R)-2-hydroxy-1-methyl-ethyl)-1-oxo-1,2-dihydro-isoquinoline-5-carboxylic acid 4-chloro-3-fluoro-benzylamide] | 13 nM | – | 1.6 h | –
O=C(Cc1cccc(C(F)(F)F)c1F)Nc1c(Cl)ccc2c(=O)n(CCO)ccc12 [Compound 20, N-[6-Chloro-2-(2-hydroxy-ethyl)-1-oxo-1,2-dihydro-isoquinolin-5-yl]-2-(2-fluoro-3-trifluoromethyl-phenyl)-acetamide] | 63 nM | – | – | –
Cc1ccc2c(=O)n([C@H](C)CN)ccc2c1NC(=O)Cc1ccc(C(F)(F)F)c(F)c1 [Compound 58, N-[2-((R)-2-Amino-1-methyl-ethyl)-6-methyl-1-oxo-1,2-dihydro-isoquinolin-5-yl]-2-(3-fluoro-4-trifluoromethyl-phenyl)-acetamide] | 0.01 nM | – | – | –
C[C@H](CO)n1ccc2c(NC(=O)Cc3cccc(C(F)(F)F)c3)c(Cl)ccc2c1=O [Compound 39, N-[6-Chloro-2-((R)-2-hydroxy-1-methyl-ethyl)-1-oxo-1,2-dihydro-isoquinolin-5-yl]-2-(3-trifluoromethyl-phenyl)-acetamide] | 1 nM | – | – | –
C[C@H](CO)n1ccc2c(C(=O)NCC3(O)CCCC(C)(C)C3)c(Cl)ccc2c1=O (stereo partly drawn) [Compound 55, 6-Chloro-2-((R)-2-hydroxy-1-methyl-ethyl)-1-oxo-1,2-dihydro-isoquinoline-5-carboxylic acid(1-hydroxy-3,3-dimethyl-cyclohexylmethyl)-amide] | 1 nM | – | – | –
C[C@H](CO)n1ccc2c(C(=O)NCC3(O)CCCCC3)c(Cl)ccc2c1=O [Compound 57, 6-Chloro-2-((R)-2-hydroxy-1-methyl-ethyl)-1-oxo-1,2-dihydro-isoquinoline-5-carboxylic acid (1-hydroxy-cyclohexylmethyl)-amide] | 5 nM | – | – | –
C[C@H](CO)n1ccc2c(NC(=O)Cc3ccc(Cl)c(F)c3)c(Cl)ccc2c1=O [Compound 15, 2-(4-Chloro-3-fluoro-phenyl)-N-[6-chloro-2-((R)-2-hydroxy-1-methyl-ethyl)-1-oxo-1,2-dihydro-isoquinolin-5-yl]-acetamide] | 6 nM | – | – | 1.3 h
C[C@H](CO)n1ccc2c(NC(=O)CC3CCCCCC3)c(Cl)ccc2c1=O [Compound 36, N-[6-Chloro-2-((R)-2-hydroxy-1-methyl-ethyl)-1-oxo-1,2-dihydro-isoquinolin-5-yl]-2-cycloheptyl-acetamide] | 4 nM | – | – | –
Cc1ccc2c(=O)n(CCO)ccc2c1NC(=O)Cc1cccc(C(F)(F)F)c1F [Compound 24, 2-(2-Fluoro-3-trifluoromethyl-phenyl)-N-[2-(2-hydroxy-ethyl)-6-methyl-1-oxo-1,2-dihydro-isoquinolin-5-yl]-acetamide] | 65 nM | – | – | –
Cc1ccc2c(=O)n([C@H](C)CN3CC(O)C3)ccc2c1NC(=O)Cc1ccc(C(F)(F)F)c(F)c1 [Compound 64, 2-(3-Fluoro-4-trifluoromethyl-phenyl)-N-{2-[(R)-2-(3-hydroxy-azetidin-1-yl)-1-methyl-ethyl]-6-methyl-1-oxo-1,2-dihydro-isoquinolin-5-yl}-acetamide] | 9 nM | 0.1 to 0.24 | – | –
Cc1ccc2c(=O)n([C@H](C)CO)ccc2c1NC(=O)CC1CCCCCC1 [Compound 32, 2-Cycloheptyl-N-[2-((R)-2-hydroxy-1-methyl-ethyl)-6-methyl-1-oxo-1,2-dihydro-isoquinolin-5-yl]-acetamide] | 9 nM | – | – | –
C[C@H](C(N)=O)n1ccc2c(NC(=O)Cc3ccc(C(F)(F)F)cc3)c(Cl)ccc2c1=O [Compound 3, (R)-2-{6-Chloro-1-oxo-5-[2-(4-trifluoromethyl-phenyl)-acetylamino]-1H-isoquinolin-2-yl}-propionamide] | 2 nM | – | – | 3.3 h
